Measured values: ChEMBL document CHEMBL1132169 (J Med Chem, 1999)

How the values were obtained:
[1] = molecular target: Sodium-dependent dopamine transporter (Rattus norvegicus) (UniProt P23977); experiment: Discrimination ratio of compound is the ratio of inhibitory activity against [3H]dopamine uptake over [3H][…] binding
[2] = molecular target: T1, Sodium-dependent dopamine transporter (Rattus norvegicus, UniProt P23977); experiment: Inhibition of dopamine uptake into rat striatal tissue, using [3H]- dopamine as the radioligand.; type: tissue-based, Striatum
T1 sequence (P23977 whole entry): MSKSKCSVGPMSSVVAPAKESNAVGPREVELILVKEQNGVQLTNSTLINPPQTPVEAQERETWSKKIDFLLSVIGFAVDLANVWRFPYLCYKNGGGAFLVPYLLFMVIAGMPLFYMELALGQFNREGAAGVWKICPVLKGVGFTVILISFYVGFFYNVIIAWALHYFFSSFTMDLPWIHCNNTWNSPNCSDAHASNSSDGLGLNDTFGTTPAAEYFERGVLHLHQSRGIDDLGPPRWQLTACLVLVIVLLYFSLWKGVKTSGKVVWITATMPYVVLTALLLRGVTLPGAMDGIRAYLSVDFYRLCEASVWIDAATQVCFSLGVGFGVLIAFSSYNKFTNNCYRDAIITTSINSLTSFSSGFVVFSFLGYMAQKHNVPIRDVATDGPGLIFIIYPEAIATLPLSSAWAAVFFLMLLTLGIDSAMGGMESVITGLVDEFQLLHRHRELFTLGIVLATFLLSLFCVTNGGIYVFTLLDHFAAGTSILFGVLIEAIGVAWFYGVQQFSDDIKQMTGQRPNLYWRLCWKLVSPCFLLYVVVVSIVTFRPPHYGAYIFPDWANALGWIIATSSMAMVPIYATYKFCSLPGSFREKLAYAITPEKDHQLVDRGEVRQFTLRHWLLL

[3] = molecular target: T1, Sodium-dependent dopamine transporter; experiment: Inhibitory binding activity against rat striatal tissue using [3H][…] as the radioligand.; type: tissue-based, Striatum

Sodium-dependent dopamine transporter (Rattus norvegicus), sequence (P23977 whole entry): as above

| SMILES | Discrimination ratio [1] | IC50 [2] [nM] | IC50 [3] [nM] |
| --- | --- | --- | --- |
| NCC1C2CCC(CC2)C1c1ccc(Cl)cc1 (stereo in doubt; 7c) [listing 1 of 2 here] | 5.3 |  |  |
| NCC1C2CCC(CC2)C1c1ccc(Cl)c(Cl)c1 (stereo in doubt; 7d) [listing 1 of 2 here] | 1.6 |  |  |
| CN(C)CC1C2CCC(CC2)C1c1ccccc1 (stereo in doubt; 6a) [listing 1 of 2 here] |  | 840 | 191 |
| NCC1C2CCC(CC2)C1c1cccc(Cl)c1 (stereo in doubt; 7b) [listing 1 of 2 here] |  | 430 | 117 |
| COc1ccccc1C1C2CCC(C2)C1CN (stereo in doubt; 9e) [listing 1 of 2 here] |  | 36600 | 11600 |
| NCC1C2CCC(C2)C1c1ccc(Cl)cc1 (stereo in doubt; 11c) [listing 1 of 2 here] |  | 593 | 207 |
| NCC1C2CCC(C2)C1c1ccccc1 (stereo in doubt; 9a) [listing 1 of 2 here] | 6.5 |  |  |
| NCC1C2CCC(C2)C1c1ccc(Cl)c(Cl)c1 (stereo in doubt; 11d) [listing 1 of 2 here] |  | 93.6 | 32.7 |
| NCC1C2CCC(C2)C1c1ccc(Cl)cc1 (stereo in doubt; 15c) [listing 1 of 2 here] |  | 34.9 | 7.7 |
| CN(C)CC1C2CCC(C2)C1c1ccccc1 (stereo in doubt; 14a) [listing 1 of 2 here] | 1.3 |  |  |
| NCC1C2CCC(C2)C1c1ccc(Cl)c(Cl)c1 (stereo in doubt; 11d) [listing 2 of 2 here] | 2.9 |  |  |
| COc1cccc(C2C3CCC(C3)C2CN)c1 (stereo in doubt; 9f) [listing 1 of 2 here] |  | 29300 | 8820 |
| COc1ccc(C2C3CCC(C3)C2CN)cc1 (stereo in doubt; 13g) [listing 1 of 2 here] | 4.6 |  |  |
| NCC1C2CCC(C2)C1c1ccc(Cl)c(Cl)c1 (stereo in doubt; 13d) [listing 1 of 2 here] |  | 98.7 | 21.3 |
| CN(C)CC1C2CCC(CC2)C1c1ccc(Cl)c(Cl)c1 (stereo in doubt; 8d) [listing 1 of 2 here] |  | 29.3 | 14.2 |
| NCC1C2CCC(CC2)C1c1cccc(Cl)c1 (stereo in doubt; 5b) [listing 1 of 2 here] |  | 960 | 204 |
| CN(C)CC1C2CCC(CC2)C1c1cccc(Cl)c1 (stereo in doubt; 8b) [listing 1 of 2 here] | 3.3 |  |  |
| CN(C)CC1C2CCC(CC2)C1c1ccc(Cl)c(Cl)c1 (stereo in doubt; 6d) [listing 1 of 2 here] |  | 56.3 | 21.3 |
| NCC1C2CCC(C2)C1c1ccccc1 (stereo in doubt; 13a) [listing 1 of 2 here] |  | 3500 | 816 |
| CN(C)CC1C2CCC(CC2)C1c1ccc(Cl)c(Cl)c1 (stereo in doubt; 6d) [listing 2 of 2 here] | 2.6 |  |  |
| CN(C)CC1C2CCC(C2)C1c1ccccc1 (stereo in doubt; 12a) [listing 1 of 2 here] |  | 4330 | 2510 |
| COc1cccc(C2C3CCC(C3)C2CN)c1 (stereo in doubt; 11f) [listing 1 of 2 here] | 3.3 |  |  |
| CN(C)CC1C2CCC(CC2)C1c1ccccc1 (stereo in doubt; 6a) [listing 2 of 2 here] | 4.4 |  |  |
| NCC1C2CCC(CC2)C1c1cccc(Cl)c1 (stereo in doubt; 5b) [listing 2 of 2 here] | 4.7 |  |  |
| CN(C)CC1C2CCC(CC2)C1c1cccc(Cl)c1 (stereo in doubt; 8b) [listing 2 of 2 here] |  | 283 | 86 |

| SMILES | Discrimination ratio [1] | IC50 [2] [nM] | IC50 [3] [nM] |
| --- | --- | --- | --- |
| NCC1C2CCC(C2)C1c1ccccc1 (stereo in doubt; 15a) [listing 1 of 2 here] |  | 875 | 251 |
| NCC1C2CCC(C2)C1c1cccc(Cl)c1 (stereo in doubt; 11b) [listing 1 of 2 here] | 3.3 |  |  |
| COc1ccc(C2C3CCC(C3)C2CN)cc1 (stereo in doubt; 9g) [listing 1 of 2 here] |  | 5550 | 1160 |
| NCC1C2CCC(CC2)C1c1ccc(Cl)c(Cl)c1 (stereo in doubt; 7d) [listing 2 of 2 here] |  | 34 | 21.5 |
| COc1ccc(C2C3CCC(C3)C2CN)cc1 (stereo in doubt; 13g) [listing 2 of 2 here] |  | 2260 | 495 |
| COc1ccccc1C1C2CCC(C2)C1CN (stereo in doubt; 11e) [listing 1 of 2 here] | 5.3 |  |  |
| NCC1C2CCC(CC2)C1c1ccccc1 (stereo in doubt; 5a) [listing 1 of 2 here] |  | 5930 | 1200 |
| NCC1C2CCC(C2)C1c1ccc(Cl)c(Cl)c1 (stereo in doubt; 9d) [listing 1 of 2 here] |  | 58 | 11.6 |
| NCC1C2CCC(CC2)C1c1cccc(Cl)c1 (stereo in doubt; 7b) [listing 2 of 2 here] | 3.7 |  |  |
| NCC1C2CCC(CC2)C1c1ccc(Cl)c(Cl)c1 (stereo in doubt; 5d) [listing 1 of 2 here] |  | 97.5 | 37.5 |
| COc1ccc(C2C3CCC(C3)C2CN)cc1 (stereo in doubt; 11g) [listing 1 of 2 here] |  | 7120 | 1700 |
| CN(C)CC1C2CCC(CC2)C1c1ccccc1 (stereo in doubt; 8a) [listing 1 of 2 here] |  | 980 | 313 |
| NCC1C2CCC(CC2)C1c1ccccc1 (stereo in doubt; 5a) [listing 2 of 2 here] | 5 |  |  |
| NCC1C2CCC(C2)C1c1ccc(Cl)cc1 (stereo in doubt; 9c) [listing 1 of 2 here] | 5 |  |  |
| NCC1C2CCC(CC2)C1c1ccc(Cl)c(Cl)c1 (stereo in doubt; 5d) [listing 2 of 2 here] | 2.6 |  |  |
| NCC1C2CCC(CC2)C1c1ccc(Cl)cc1 (stereo in doubt; 5c) [listing 1 of 2 here] |  | 375 | 71.4 |
| COc1ccc(C2C3CCC(C3)C2CN)cc1 (stereo in doubt; 9g) [listing 2 of 2 here] | 4.8 |  |  |
| COc1ccccc1C1C2CCC(C2)C1CN (stereo in doubt; 11e) [listing 2 of 2 here] |  | 7860 | 1480 |
| NCC1C2CCC(C2)C1c1cccc(Cl)c1 (stereo in doubt; 11b) [listing 2 of 2 here] |  | 780 | 239 |
| COc1cccc(C2C3CCC(C3)C2CN)c1 (stereo in doubt; 11f) [listing 2 of 2 here] |  | 6560 | 2010 |
| CN(C)CC1C2CCC(C2)C1c1ccccc1 (stereo in doubt; 12a) [listing 2 of 2 here] | 1.7 |  |  |
| NCC1C2CCC(C2)C1c1ccccc1 (stereo in doubt; 11a) [listing 1 of 2 here] | 3.1 |  |  |
| NCC1C2CCC(C2)C1c1ccc(Cl)cc1 (stereo in doubt; 11c) [listing 2 of 2 here] | 2.9 |  |  |
| NCC1C2CCC(CC2)C1c1ccccc1 (stereo in doubt; 7a) [listing 1 of 2 here] |  | 1480 | 270 |
| COc1ccc(C2C3CCC(C3)C2CN)cc1 (stereo in doubt; 11g) [listing 2 of 2 here] | 4.2 |  |  |

| SMILES | Discrimination ratio [1] | IC50 [2] [nM] | IC50 [3] [nM] |
| --- | --- | --- | --- |
| COc1cccc(C2C3CCC(C3)C2CN)c1 (stereo in doubt; 9f) [listing 2 of 2 here] | 3.3 |  |  |
| NCC1C2CCC(C2)C1c1ccccc1 (stereo in doubt; 9a) [listing 2 of 2 here] |  | 2220 | 340 |
| NCC1C2CCC(C2)C1c1ccc(Cl)c(Cl)c1 (stereo in doubt; 9d) [listing 2 of 2 here] | 5 |  |  |
| NCC1C2CCC(C2)C1c1ccc(Cl)cc1 (stereo in doubt; 15c) [listing 2 of 2 here] | 4.5 |  |  |
| NCC1C2CCC(C2)C1c1ccccc1 (stereo in doubt; 13a) [listing 2 of 2 here] | 4.3 |  |  |
| NCC1C2CCC(C2)C1c1ccc(Cl)cc1 (stereo in doubt; 13c) [listing 1 of 2 here] | 5.3 |  |  |
| NCC1C2CCC(C2)C1c1ccc(Cl)c(Cl)c1 (stereo in doubt; 13d) [listing 2 of 2 here] | 4.6 |  |  |
| CN(C)CC1C2CCC(CC2)C1c1cccc(Cl)c1 (stereo in doubt; 6b) [listing 1 of 2 here] |  | 186 | 36.8 |
| NCC1C2CCC(C2)C1c1ccc(Cl)cc1 (stereo in doubt; 9c) [listing 2 of 2 here] |  | 230 | 46 |
| NCC1C2CCC(C2)C1c1ccccc1 (stereo in doubt; 11a) [listing 2 of 2 here] |  | 8850 | 2900 |
| CN(C)CC1C2CCC(CC2)C1c1ccc(Cl)c(Cl)c1 (stereo in doubt; 8d) [listing 2 of 2 here] | 2.1 |  |  |
| CN(C)CC1C2CCC(CC2)C1c1ccccc1 (stereo in doubt; 8a) [listing 2 of 2 here] | 3.1 |  |  |
| NCC1C2CCC(CC2)C1c1ccc(Cl)cc1 (stereo in doubt; 7c) [listing 2 of 2 here] |  | 68.3 | 12.9 |
| NCC1C2CCC(C2)C1c1cccc(Cl)c1 (stereo in doubt; 9b) [listing 1 of 2 here] |  | 758 | 149 |
| NCC1C2CCC(CC2)C1c1ccc(Cl)cc1 (stereo in doubt; 5c) [listing 2 of 2 here] | 5.2 |  |  |
| CN(C)CC1C2CCC(C2)C1c1ccccc1 (stereo in doubt; 10a) [listing 1 of 2 here] |  | 1100 | 515 |
| CN(C)CC1C2CCC(C2)C1c1ccccc1 (stereo in doubt; 10a) [listing 2 of 2 here] | 2.1 |  |  |
| NCC1C2CCC(C2)C1c1cccc(Cl)c1 (stereo in doubt; 9b) [listing 2 of 2 here] | 5.1 |  |  |
| NCC1C2CCC(C2)C1c1ccccc1 (stereo in doubt; 15a) [listing 2 of 2 here] | 3.5 |  |  |
| NCC1C2CCC(CC2)C1c1ccccc1 (stereo in doubt; 7a) [listing 2 of 2 here] | 5.5 |  |  |
| COc1ccccc1C1C2CCC(C2)C1CN (stereo in doubt; 9e) [listing 2 of 2 here] | 3.1 |  |  |
| CN(C)CC1C2CCC(C2)C1c1ccccc1 (stereo in doubt; 14a) [listing 2 of 2 here] |  | 2750 | 2140 |
| CN(C)CC1C2CCC(CC2)C1c1cccc(Cl)c1 (stereo in doubt; 6b) [listing 2 of 2 here] | 5.1 |  |  |
| NCC1C2CCC(C2)C1c1ccc(Cl)cc1 (stereo in doubt; 13c) [listing 2 of 2 here] |  | 348 | 65.3 |
